We go through 28 compounds from patent publication US20200071351A1, “TACCALONOLIDE MICROTUBULE STABILIZERS” (THE BOARD OF REGENTS OF THE UNIVERSITY OF TEXAS SYSTEM, priority 2016, published 2020).

By IC50 is commonly meant the concentration that gives 50% inhibition.

Test [1] relates to HeLa cells. In words: Inhibition of cellular proliferation, SRB assay, HeLa cells. It is filed as cell-based. As to conditions: for activity at concentrations as high as 30,000 nM: up to 30,000 nM. How it is done:
The ability of the compounds to initiate cytotoxicity was also determined. […] The determination of IC50 values was performed on taccalonolide material after NMR analysis and subsequent lyophilization. Ethanol or DMSO was used as the vehicle for all cellular studies.
The antiproliferative potencies of the taccalonolides were evaluated in HeLa cells using the SRB assay.
On the technique in general: Sulforhodamine B stains cellular protein and so reports cell mass.

Test [2] has as its system HeLa cells. In words: Mitotic spindle structures, indirect immunofluorescence. It is filed as cell-based. As to conditions: 18 h, 125 nM AF, 200 nM AI, 35 nM AJ. The method, then: Cellular microtubules in interphase and mitotic HeLa cells were visualized using indirect immunofluorescence techniques as previously described (Tinley et al., 2003). […] Representative images of interphase and mitotic cells were acquired using a Nikon Eclipse 80i fluorescence microscope and compiled using NIS Elements AR 3.0 software.
The effects of the taccalonolides on mitotic spindle structures were evaluated to test whether they caused mitotic spindle defects leading to cell cycle arrest. β-tubulin and DNA were visualized in HeLa cells by indirect immunofluorescence and DAPI staining, respectively. […] These mitotic cells contained multiple abnormal mitotic spindles, which is another common effect of microtubule stabilizing agents (FIGS. 4A-D).
The microtubule structures in mitotic cells were visualized by indirect immunofluorescence using a β-tubulin antibody.

Setting [3] is: HeLa cells, SRB assay, parent taccalonolide, read-out: IC50.
The mark [4] stands for this setting: Homo sapiens, HeLa, HeLa cells, SRB assay, parent taccalonolide, read-out: IC50.

Like-named read-outs stand apart in the source and are kept apart here. A value given as a limit tells only on which side of the number the result lay.

Take “5α-hydroxy-taccalonolide A [Taccalonolide Z]”: the IC50 in test [1] (setting [3]) was determined as 0.12 µM. For the compound `CC(=O)O[C@H]1C[C@H]2[C@H]([C@@H]3[C@@H](O)[C@@H]4[C@H]([C@H](C)[C@@H]5O[C@@]56OC(=O)[C@@](C)(O)[C@]46C)[C@]31C)[C@@H](O)C(=O)[C@H]1C[C@@H]3O[C@@H]3[C@H](OC(C)=O)[C@@]12C` [N-epo], in test [1] (HeLa cells, SRB assay, C22-C23 epoxide of the taccalonolide in the same line, read-out: Corresponding Epoxide IC50), the IC50 was 0.011 µM. Regarding `CC(=O)O[C@@H]1[C@H]2[C@H]3[C@H]([C@H](OC(C)=O)[C@H](OC(C)=O)[C@]2(C)[C@@H]2[C@@H]1[C@]1(C)C(=C[C@H]2C)OC(=O)[C@@]1(C)O)[C@]1(C)[C@H](C[C@@H]2O[C@@H]2[C@@H]1OC(C)=O)C(=O)[C@@H]3O` [Taccalonolide A, reference compound], the IC50 in test [1] (setting [4]) was 5.38 µM.

For `CC(=O)O[C@@H]1[C@H]2[C@H]3[C@H]([C@H](OC(C)=O)[C@H](OC(C)=O)[C@]2(C)[C@@H]2[C@@H]1[C@]1(C)C(=C[C@H]2C)OC(=O)[C@@]1(C)O)[C@@]1(C)[C@@H](OC(C)=O)[C@H]2O[C@H]2C[C@]1(O)C(=O)[C@@H]3OC(C)=O` [Taccalonolide AA], in test [1] (setting [4]), the IC50 stood at 0.0323 µM. Turning to `CC(=O)O[C@H]1[C@H]2[C@H]([C@@H]3[C@@H](O)[C@@H]4[C@H]([C@H](C)C=C5OC(=O)[C@@](C)(O)[C@@]54C)[C@@]3(C)[C@H]1OC(C)=O)[C@@H](O)C(=O)[C@@]1(O)C[C@@H]3O[C@@H]3[C@H](OC(C)=O)[C@]21C` [Taccalonolide AB], the half-inhibitory concentration (IC50) in test [1] (setting [4]) came out at 2.77 µM.

As to `CC(=O)O[C@@H]1[C@H]2[C@H]3C([C@H](OC(C)=O)[C@H](OC(C)=O)[C@]2(C)[C@@H]2[C@@H]1[C@]1(C)C(=C[C@@]2(C)OO)OC(=O)[C@@]1(C)O)[C@]1(C)[C@H](C[C@@H]2O[C@@H]2[C@@H]1OC(C)=O)C(=O)[C@@H]3O` (stereo partly drawn) [Taccalonolide AC], the “activity at concentrations as high as 50,000 nM” value in test [1] (HeLa cells, up to 50,000 nM) is given as “no activity”. With `CC(=O)O[C@@H]1[C@H]2[C@@H]3C(=O)C(O)=C4C[C@@H]5O[C@@H]5[C@H](OC(C)=O)[C@]4(C)[C@H]3[C@H](OC(C)=O)[C@H](OC(C)=O)[C@]2(C)[C@@H]2[C@@H]1[C@]1(C)C(=C[C@H]2C)OC(=O)[C@@]1(C)O` [Taccalonolide AD], the IC50 in test [1] (setting [3]) was 3.48 µM.

`CC(=O)O[C@@H]1[C@H]2[C@H]3[C@H]([C@H](OC(C)=O)[C@H](OC(C)=O)[C@]2(C)[C@@H]2[C@@H]1[C@]1(C)C(=C[C@H]2C)OC(=O)[C@@]1(C)O)[C@]1(C)[C@H](C[C@@H]2O[C@@H]2[C@@H]1OC(C)=O)C(=O)C3(O)O` [Taccalonolide AE]: the IC50 in test [1] (setting [3]) came to 5.01 µM. For `CC(=O)O[C@H]1C[C@H]2[C@H]([C@@H]3[C@@H](O)[C@@H]4[C@H]([C@H](C)C=C5OC(=O)[C@@](C)(O)[C@@]54C)[C@]31C)[C@@H](O)C(=O)[C@H]1C[C@@H]3O[C@@H]3[C@H](OC(=O)CC(C)C)[C@@]12C` [Taccalonolide AI], the IC50 in test [1] (setting [3]) was found to be 0.047 µM. For the same compound, in test [2], the “effect on mitotic spindle structures” value was “mitotic arrest of cells with multiple abnormal mitotic spindles”. Turning to `CC(=O)O[C@H]1C[C@H]2[C@H]([C@@H]3[C@H]4OC(=O)[C@@](C)(O)[C@@]5(C)C(=O)C[C@@H](C)[C@@H]([C@@H]45)[C@]31C)[C@@H](O)C(=O)[C@H]1C[C@@H]3O[C@@H]3[C@H](OC(C)=O)[C@@]12C` [Taccalonolide AK], the IC50 in test [1] (setting [3]) was greater than 30 µM. Also, the “activity at concentrations as high as 30,000 nM” value (“activity … as 30,000 nM” below) in test [1] (HeLa cells) was “no activity”.

For the compound `CC(=O)O[C@H]1C[C@H]2[C@H]([C@@H]3[C@@H](O)[C@@H]4[C@H]([C@H](C)C=C5OC(=O)[C@@](C)(O)[C@@]54C)[C@]31C)[C@@H](O)C(=O)[C@@]1(O)C[C@@H]3O[C@@H]3[C@H](OC(=O)CC(C)C)[C@]21C` [Taccalonolide AM], the IC50 in test [1] (setting [3]) is 1.2 µM. Consider `CC(=O)O[C@H]1C[C@H]2[C@H]([C@@H]3[C@@H](O)[C@@H]4[C@H]([C@H](C)C=C5OC(=O)[C@@](C)(O)[C@@]54C)[C@]31C)[C@@H](O)C(=O)[C@H]1C[C@@H]3O[C@@H]3[C@H](O)[C@@]12C` [Taccalonolide AN], for which, in test [1] (setting [3]), the IC50 amounted to 1 µM.

On to `CC(=O)O[C@H]1[C@H]2[C@H]([C@@H]3[C@H]4OC(=O)[C@@](C)(O)[C@@]5(C)C(=O)C[C@@H](C)[C@@H]([C@@H]45)[C@@]3(C)[C@H]1OC(C)=O)[C@@H](O)C(=O)[C@H]1C[C@@H]3O[C@@H]3[C@H](OC(C)=O)[C@]21C` [Taccalonolide AO], for which the IC50 in test [1] (setting [3]) is greater than 30 µM. For the same compound, the “activity … as 30,000 nM” value in test [1] (HeLa cells) is recorded as “no activity”. Consider `CC(=O)O[C@H]1[C@H]2[C@H]([C@@H]3[C@@H](O)[C@@H]4[C@H]([C@H](C)C=C5OC(=O)[C@@](C)(O)[C@@]54C)[C@@]3(C)[C@H]1OC(C)=O)[C@@H](O)C(=O)[C@H]1C[C@@H]3O[C@@H]3[C@H](OC(C)=O)[C@]21C` [Taccalonolide B, reference compound], for which the IC50 in test [1] (setting [4]) came out at 3.12 µM. In the case of `CC(=O)O[C@@H]1[C@H]2[C@@H]3[C@@H](O)C(=O)[C@H]4C[C@@H]5O[C@@H]5[C@H](OC(C)=O)[C@]4(C)[C@H]3C[C@H](OC(C)=O)[C@]2(C)[C@@H]2[C@@H]1[C@]1(C)C(=C[C@H]2C)OC(=O)[C@@]1(C)O` [Taccalonolide E, reference compound], in test [1] (setting [4]), the IC50 was 39.5 µM. For the compound `CC(=O)O[C@H]1[C@@H]2[C@H]([C@H](C)C=C3OC(=O)[C@@](C)(O)[C@@]32C)[C@]2(C)[C@@H]1C1=C(O)C(=O)[C@H]3C[C@@H]4O[C@@H]4[C@H](OC(C)=O)[C@]3(C)[C@H]1[C@H](OC(C)=O)[C@@H]2OC(C)=O` [Taccalonolide H2], the “more potent than taccalonolide A” value in test [1] (HeLa IC50 ratio) is 7.4 fold. Moreover, in test [1] (setting [3]), the IC50 was 0.73 µM. `CC(=O)O[C@H]1[C@H]2[C@@H](C(=O)[C@H](O)[C@H]3C[C@@H]4O[C@@H]4[C@H](OC(C)=O)[C@]23C)[C@@H]2[C@@H](O)[C@@H]3[C@H]([C@H](C)C=C4OC(=O)[C@@](C)(O)[C@@]43C)[C@@]2(C)[C@H]1OC(C)=O` [Taccalonolide I, reference compound]: the IC50 in test [1] (setting [4]) was greater than 10 µM. Take `CC(=O)O[C@H]1C[C@H]2[C@H]([C@@H]3[C@@H](O)[C@@H]4[C@H]([C@H](C)C=C5OC(=O)[C@@](C)(O)[C@@]54C)[C@]31C)[C@@H](O)C(=O)[C@H]1C[C@@H]3O[C@@H]3[C@H](OC(C)=O)[C@@]12C` [Taccalonolide N, reference compound]: the IC50 in test [1] (setting [4]) came to 8.5 µM. Consider `CC(=O)O[C@@H]1[C@H]2[C@@H]3[C@@H](OC(C)=O)C(=O)[C@@]4(O)C[C@@H]5O[C@@H]5[C@H](OC(C)=O)[C@]4(C)[C@H]3C[C@H](OC(C)=O)[C@]2(C)[C@@H]2[C@@H]1[C@]1(C)C(=C[C@H]2C)OC(=O)[C@@]1(C)O` [Taccalonolide R, reference compound], for which the IC50 in test [1] (setting [4]) is 13.1 µM; in test [1] (Homo sapiens, HeLa, read-out: IC50) it was 13 µM. Turning to `CC(=O)O[C@@H]1[C@H]2[C@@H]3[C@@H](O)C(=O)[C@H]4C[C@@H]5O[C@@H]5[C@H](OC(=O)C(C)C)[C@]4(C)[C@H]3C[C@H](OC(C)=O)[C@]2(C)[C@@H]2[C@@H]1[C@]1(C)C(=C[C@H]2C)OC(=O)[C@@]1(C)O` [Taccalonolide S, reference compound], the IC50 in test [1] (setting [4]) worked out at 0.009 µM. For `CC(=O)O[C@@H]1[C@H]2[C@@H]3[C@@H](OC(C)=O)C(=O)[C@@]4(O)C[C@@H]5O[C@@H]5[C@H](OC(=O)CC(C)C)[C@]4(C)[C@H]3C[C@H](OC(C)=O)[C@]2(C)[C@@H]2[C@@H]1[C@]1(C)C(=C[C@H]2C)OC(=O)[C@@]1(C)O` [Taccalonolide T, reference compound], the IC50 in test [1] (setting [4]) was 0.335 µM. In the case of Taccalonolide AG, the concentration for half-maximal inhibition (IC50) in test [1] (setting [3]) was 0.032 µM.

With Taccalonolide AH, in test [1] (setting [3]), the IC50 was 0.158 µM.

Regarding Taccalonolide AL, the IC50 in test [1] (setting [3]) stood at 18 µM. The same measure, in the same setting: the value for Taccalonolide AP was greater than 30 µM.

Taccalonolide AQ: the IC50 in test [1] (setting [3]) is greater than 30 µM. In addition, the “activity … as 30,000 nM” value in test [1] (HeLa cells) was “little to no activity”. Taccalonolide AR: the IC50 in test [1] (setting [3]) was greater than 30 µM. Further, the “activity … as 30,000 nM” value in test [1] (HeLa cells) was “little to no activity”. With Taccalonolide AS, the IC50 in test [1] (setting [3]) was greater than 10 µM. In test [1] (HeLa cells), the “activity … as 30,000 nM” value is listed as “little to no activity”.
